This is an account of results in ChEMBL document CHEMBL1144119, “1',2',3',4'-tetradehydrotubulosine, a cytotoxic alkaloid from Pogonopus speciosus” (1999).

Values after ≈ are worked out from the molar mass of the structure shown. A value given as a limit tells only on which side of the number the result lay.

What all share (format): functional
The test system of experiment [1] is M109. Briefly: Cytotoxicity against mouse M109 cells. As to conditions: read-out: ED50 (the source's name).
The test system of experiment [2] is P388. Briefly: In vivo antitumor activity against mouse P388 cells assessed as increase in life span at 2 mg/kg.
The subject of experiment [3] is LNCaP. Briefly: Cytotoxicity against human LNCAP cells. As to conditions: read-out: ED50 (the source's name).
Experiment [4] has as its system KB. Put plainly: Cytotoxicity against human KB cells. As to conditions: read-out: ED50 (the source's name).
Experiment [5] deals with SK-N-SH. Put plainly: Cytotoxicity against human SK-N-SH cells. As to conditions: read-out: ED50 (the source's name).
Experiment [6] concerns Col2. Put plainly: Cytotoxicity against human Col2 cells. As to conditions: read-out: ED50 (the source's name).
Experiment [7] concerns SW626. Briefly: Cytotoxicity against human SW626 cells. To be noted: read-out: ED50 (the source's name).
The test system of experiment [8] is KB. Put plainly: Cytotoxicity against human multidrug resistant KB cells in absence of vinblastine. As to conditions: read-out: ED50 (the source's name).
Experiment [9] deals with L1210. Put plainly: In vivo antitumor activity against mouse L1210 cells assessed as increase in life span at 2 mg/kg.
For experiment [10], the system named is Lu1. Briefly: Cytotoxicity against human Lu1 cells. As to conditions: read-out: ED50 (the source's name).
Experiment [11] can be described thus: Cytotoxicity against human BC1 cells. As to conditions: read-out: ED50 (the source's name).
The subject of experiment [12] is KB. Put plainly: Cytotoxicity against human multidrug resistant KB cells in presence of vinblastine. To be noted: read-out: ED50 (the source's name).

Regarding `CC[C@H]1CN2CCc3cc(OC)c(OC)cc3[C@@H]2C[C@@H]1C[C@H]1NCCc2c1[nH]c1ccc(O)cc21` [TUBULOSINE], the EC50 was 0.1 µg/mL (≈ 0.21 µM) in experiment [1]; under 0.16 µg/mL in [3]; under 0.16 µg/mL in experiment [4]; 0.1 µg/mL (≈ 0.21 µM) in experiment [5]; 0.05 µg/mL (≈ 0.105 µM) in experiment [6]; 0.22 µg/mL (≈ 0.463 µM) in experiment [7]. In addition, the EC50 in experiment [8] was 0.1 µg/mL (≈ 0.21 µM); in [10], under 0.001 µg/mL; in experiment [11], 0.1 µg/mL (≈ 0.21 µM); in [12] it was 0.1 µg/mL. The Activity was found to be 80% in experiment [2] and 30% in [9].
With `CC[C@H]1CN2CCc3cc(OC)c(OC)cc3[C@@H]2C[C@@H]1Cc1nccc2c1[nH]c1ccc(O)cc12`, the EC50 in experiment [1] turned out to be 4.4 µg/mL (≈ 9.33 µM); in experiment [3], 6.8 µg/mL (≈ 14.4 µM); in [4] it was 2.2 µg/mL (≈ 4.66 µM); in [5], 4 µg/mL (≈ 8.48 µM); in [6] it was 2.8 µg/mL (≈ 5.94 µM); in experiment [7] it was 6.1 µg/mL (≈ 12.9 µM). Further, the EC50 in experiment [8] came to 8.8 µg/mL (≈ 18.7 µM); in experiment [10], 3.6 µg/mL (≈ 7.63 µM); in experiment [11] it was 3.9 µg/mL (≈ 8.27 µM); in experiment [12], 9 µg/mL.
Regarding `CC[C@H]1CN2CCc3cc(OC)c(OC)cc3[C@@H]2C[C@@H]1CC1=NCCc2cc(O)c(OC)cc21` [PSYCHOTRINE], the EC50 in experiment [1] turned out to be 9 µg/mL (≈ 19.4 µM); in experiment [3] it was 2.3 µg/mL (≈ 4.95 µM); in experiment [4] it was 2.8 µg/mL (≈ 6.03 µM); in experiment [5] it was 4 µg/mL (≈ 8.61 µM); in experiment [6], 4.5 µg/mL (≈ 9.69 µM); in experiment [7], 13.3 µg/mL (≈ 28.6 µM). Also, the EC50 stood at 9.4 µg/mL (≈ 20.2 µM) in [8], 5.7 µg/mL (≈ 12.3 µM) in experiment [10], 3.4 µg/mL (≈ 7.32 µM) in experiment [11] and 9 µg/mL in experiment [12].
